Measurements published in patent publication US20140024527A1, “HERBICIDAL PYRAZINONES” (E I DU DE NEMOURS AND COMPANY, priority 2011, published 2014).

Assays:
Type in all cases: in vivo
rice (Oryza sativa) = assay: Test B flooded paddy test; conditions: Flood, scale 0 to 100
From the text: (§1) Plant species in the flooded paddy test consisted of rice (Oryza sativa), umbrella sedge (Cyperus difformis), ducksalad (Heteranthera limosa) and barnyardgrass (Echinochloa crus-galli) grown to the 2-leaf stage for testing. At time of treatment, test pots were flooded to 3 cm above the soil surface, treated by application of test compounds directly to the paddy water, and then maintained at that water depth for the duration of the test. Treated plants and controls were maintained in a greenhouse for 13 to 15 days, after which time all species were compared to controls and visually evaluated. Plant response ratings, summarized in Table B, are based on a scale of 0 to 100 where 0 is no effect and 100 is complete control. A dash (-) response means no test result.

[1] = test system: umbrella sedge (Cyperus difformis); assay: Test B flooded paddy test; conditions: Flood, scale 0 to 100
From the text: as §1

[2] = test system: ducksalad (Heteranthera limosa); assay: Test B flooded paddy test; conditions: Flood, scale 0 to 100
From the text: as §1

[3] = test system: barnyardgrass (Echinochloa crus-galli); assay: Test B flooded paddy test; conditions: Flood
From the text: as §1

[4] = test system: velvetleaf (Abutilon theophrasti); assay: Test A postemergence; conditions: 0 to 100 scale, 0 no effect, 100 complete control, approx. 10 days
From the text: (§2) Seeds of barnyardgrass (Echinochloa crus-galli), large crabgrass (Digitaria sanguinalis), giant foxtail (Setaria faberii), morningglory (Ipomoea spp.), pigweed (Amaranthus retroflexus), velvetleaf (Abutilon theophrasti), wheat (Triticum aestivum) and corn (Zea mays) were planted into a blend of loam soil and sand and treated preemergence with a directed soil spray using test chemicals formulated in a non-phytotoxic solvent mixture which included a surfactant. At the same time these species were also treated with postemergence applications of test compounds formulated in the same manner. Plants ranged in height from 2 to 10 cm and were in the one- to two-leaf stage for the postemergence treatments. Treated plants and untreated controls were maintained in a greenhouse for approximately 10 days, after which time all treated plants were compared to untreated controls and visually evaluated for injury. Plant response ratings, summarized in Table A, are based on a 0 to 100 scale where 0 is no effect and 100 is complete control.

[5] = test system: pigweed (Amaranthus retroflexus); assay: Test A postemergence; conditions: 0 to 100 scale, 0 no effect, 100 complete control, approx. 10 days
From the text: as §2

[6] = test system: giant foxtail (Setaria faberii); assay: Test A postemergence; conditions: 0 to 100 scale, 0 no effect, 100 complete control, approx. 10 days
From the text: as §2

corn (Zea mays) = assay: Test A postemergence; conditions: 0 to 100 scale, 0 no effect, 100 complete control, approx. 10 days
From the text: as §2

[7] = test system: morningglory (Ipomoea spp.); assay: Test A postemergence; conditions: 0 to 100 scale, 0 no effect, 100 complete control, approx. 10 days
From the text: as §2

[8] = test system: wheat (Triticum aestivum); assay: Test A postemergence; conditions: 0 to 100 scale, 0 no effect, 100 complete control, approx. 10 days
From the text: as §2

[9] = test system: large crabgrass (Digitaria sanguinalis); assay: Test A postemergence; conditions: 0 to 100 scale, 0 no effect, 100 complete control, approx. 10 days
From the text: as §2

[10] = test system: barnyardgrass (Echinochloa crus-galli); assay: Test A postemergence; conditions: 0 to 100 scale, 0 no effect, 100 complete control, approx. 10 days
From the text: as §2

wild oat (Avena fatua) = assay: Test B postemergence; conditions: scale 0 to 100
From the text: (§3) Seeds of plant species selected from blackgrass (Alopecurus myosuroides), downy bromegrass (Bromus tectorum), green foxtail (Setaria viridis), Italian ryegrass (Lolium multiflorum), wheat (Triticum aestivum), wild oat (Avena fatua), galium (Galium aparine), bermudagrass (Cynodon dactylon), Surinam grass (Brachiaria decumbens), cocklebur (Xanthium strumarium), corn (Zea mays), large crabgrass (Digitaria sanguinalis), woolly cupgrass (Eriochloa villosa), giant foxtail (Setaria faberii), goosegrass (Eleusine indica), johnsongrass (Sorghum halepense), kochia (Kochia scoparia), lambsquarters (Chenopodium album), morningglory (Ipomoea coccinea), yellow nutsedge (Cyperus esculentus), pigweed (Amaranthus retroflexus), ragweed (Ambrosia elatior), soybean (Glycine max), velvetleaf (Abutilon theophrasti), barley (Hordeum vulgare), canarygrass (Phalaris minor), chickweed (Stellaria media), deadnettle (Lamium amplexicaule) and windgrass (Apera spica-venti) were planted in pots containing Redi-Earth® planting medium (Scotts Company, Marysville, Ohio, USA) comprising spaghnum peat moss, vermiculite, wetting agent and starter nutrients and treated postemergence with test compounds formulated in a non-phytotoxic solvent mixture which included a surfactant. Plants ranged in height from 2 to 18 cm (1- to 4-leaf stage).
(§4) Treated plants and controls were maintained in a greenhouse for 13 to 15 days, after which time all species were compared to controls and visually evaluated. Plant response ratings, summarized in Table B, are based on a scale of 0 to 100 where 0 is no effect and 100 is complete control. A dash (-) response means no test result.

[11] = test system: deadnettle (Lamium amplexicaule); assay: Test B postemergence; conditions: scale 0 to 100
From the text: as §3, §4

[12] = test system: giant foxtail (Setaria faberii); assay: Test B postemergence; conditions: scale 0 to 100
From the text: as §3, §4

[13] = test system: chickweed (Stellaria media); assay: Test B postemergence; conditions: scale 0 to 100
From the text: as §3, §4

[14] = test system: yellow nutsedge (Cyperus esculentus); assay: Test B postemergence; conditions: scale 0 to 100
From the text: as §3, §4

[15] = test system: blackgrass (Alopecurus myosuroides); assay: Test B postemergence; conditions: scale 0 to 100
From the text: as §3, §4

[16] = test system: Italian ryegrass (Lolium multiflorum); assay: Test B postemergence; conditions: scale 0 to 100
From the text: as §3, §4

COCCn1c(-c2cccc(F)c2)c(Cl)nc(C(=O)C2=C(O)CCCC2=O)c1=O [Compound 4, 5-chloro-6-(3-fluorophenyl)-3-[(2-hydroxy-6-oxo-1-cyclohexen-1-yl)carbonyl]-1-(2-methoxyethyl)-2(1H)pyrazinone]
Plant response rating, Rice (rice (Oryza sativa); 31 g ai/ha): 0
Plant response rating, Rice (rice (Oryza sativa); 62 g ai/ha): 0
Plant response rating, Rice (rice (Oryza sativa); 125 g ai/ha): 0
Plant response rating, Rice (rice (Oryza sativa); 250 g ai/ha): 30
Plant response rating, Sedge, Umbrella ([1]; 31 g ai/ha): 75
Plant response rating, Sedge, Umbrella ([1]; 62 g ai/ha): 75
Plant response rating, Sedge, Umbrella ([1]; 125 g ai/ha): 75
Plant response rating, Sedge, Umbrella ([1]; 250 g ai/ha): 80
Plant response rating, Ducksalad ([2]; 31 g ai/ha): 60
Plant response rating, Ducksalad ([2]; 62 g ai/ha): 65
Plant response rating, Ducksalad ([2]; 125 g ai/ha): 75
Plant response rating, Ducksalad ([2]; 250 g ai/ha): 85
Plant response rating, Barnyardgrass ([3]; 31 g ai/ha, scale 0 to 100): 0
Plant response rating, Barnyardgrass ([3]; 62 g ai/ha, scale 0 to 100): 0
Plant response rating, Barnyardgrass ([3]; 125 g ai/ha, scale 0 to 100): 0
Plant response rating, Barnyardgrass ([3]; 250 g ai/ha, scale 0 to 100 (0 no effect, 100 complete control)): 30
Plant response rating, Velvetleaf ([4]; 125 g ai/ha): 100
Plant response rating, Velvetleaf ([4]; 500 g ai/ha): 100
Plant response rating, Pigweed ([5]; 125 g ai/ha): 80
Plant response rating, Pigweed ([5]; 500 g ai/ha): 100
Plant response rating, Foxtail, Giant ([6]; 125 g ai/ha): 30
Plant response rating, Foxtail, Giant ([6]; 500 g ai/ha): 70
Plant response rating, Corn (corn (Zea mays); 125 g ai/ha): 0
Plant response rating, Corn (corn (Zea mays); 500 g ai/ha): 40
Plant response rating, Morningglory ([7]; 125 g ai/ha): 90
Plant response rating, Morningglory ([7]; 500 g ai/ha): 100
Plant response rating, Wheat ([8]; 125 g ai/ha): 0
Plant response rating, Wheat ([8]; 500 g ai/ha): 10
Plant response rating, Crabgrass, Large ([9]; 125 g ai/ha): 80
Plant response rating, Crabgrass, Large ([9]; 500 g ai/ha): 100
Plant response rating, Barnyardgrass ([10]; 125 g ai/ha): 60
Plant response rating, Barnyardgrass ([10]; 500 g ai/ha): 100
Plant response rating, Oat, Wild (wild oat (Avena fatua); 31 g ai/ha): 5
Plant response rating, Oat, Wild (wild oat (Avena fatua); 62 g ai/ha): 30
Plant response rating, Oat, Wild (wild oat (Avena fatua); 125 g ai/ha): 30
Plant response rating, Oat, Wild (wild oat (Avena fatua); 250 g ai/ha): 40
Plant response rating, Deadnettle ([11]; 31 g ai/ha): 15
Plant response rating, Deadnettle ([11]; 62 g ai/ha): 15
Plant response rating, Foxtail, Giant ([12]; 31 g ai/ha): 40
Plant response rating, Foxtail, Giant ([12]; 62 g ai/ha): 60
Plant response rating, Foxtail, Giant ([12]; 125 g ai/ha): 70
Plant response rating, Foxtail, Giant ([12]; 250 g ai/ha): 75
Plant response rating, Chickweed ([13]; 31 g ai/ha): 5
Plant response rating, Chickweed ([13]; 62 g ai/ha): 10
Plant response rating, Chickweed ([13]; 125 g ai/ha): 15
Plant response rating, Chickweed ([13]; 250 g ai/ha): 45
Plant response rating, Nutsedge, Yellow ([14]; 31 g ai/ha): 5
Plant response rating, Nutsedge, Yellow ([14]; 62 g ai/ha): 20
Plant response rating, Nutsedge, Yellow ([14]; 125 g ai/ha): 45
Plant response rating, Nutsedge, Yellow ([14]; 250 g ai/ha): 65
Plant response rating, Blackgrass ([15]; 31 g ai/ha): 5
Plant response rating, Blackgrass ([15]; 62 g ai/ha): 5
Plant response rating, Blackgrass ([15]; 125 g ai/ha): 5
Plant response rating, Blackgrass ([15]; 250 g ai/ha): 10
Plant response rating, Ryegrass, Italian ([16]; 31 g ai/ha): 0
Plant response rating, Ryegrass, Italian ([16]; 62 g ai/ha): 0
Plant response rating, Ryegrass, Italian ([16]; 125 g ai/ha): 0
Plant response rating, Ryegrass, Italian ([16]; 250 g ai/ha): 10
